Experimental findings from patent US12263248B2, “Compounds and compositions for intracellular delivery of therapeutic agents” (ModernaTX, Inc., priority 2018, dated 2025) are described below.

SMILES strings stand for the structures.

What is called pKa is the negative logarithm of the acid dissociation constant.

In one data set the test system is IL-6, IP-10. The data set can be described thus: Cytokine induction in mice upon intravenous administration. Format: in vivo. More on the design: Cytokine induction IL-6 / Cytokine induction IP-10: unit not given here. The following applies: 0.5 mpk, 6 hours; for Cytokine induction IL-6 / Cytokine induction IP-10: intravenous. From the text: The introduction of foreign material into a mammalian body induces an innate immune response that promotes cytokine production. Such immune responses to, for example, nanoparticle compositions including therapeutic and/or prophylactics, are undesirable. The induction of certain cytokines is thus measured to evaluate the […] of nanoparticle compositions. The concentrations of various cytokines in mice upon intravenous administration of nanoparticle compositions presented in Table 1A at a dosage of 0.5 mpk was measured at 6 hours. The standard MC3 formulation and a PBS control were also tested. As is evident in Table 7, IL-6 induction was highest for compositions including Compounds 1, 3, 9, 19, and 26, while IP-10 induction was highest for compositions including Compounds 3, 4, 7, 20, and 26. IL-6 induction was lowest for compositions including Compounds 4, 11, 12, and 28. IP-10 induction was lowest for compositions including Compounds 10, 11, 12, 13, 15, 17, and 18.

The subject of another data set is sC5b-9. Kind of data set: Complement activation in vitro (sC5b-9 levels). The class given is cell-based. The following applies: human cells contacted in vitro. As to the method: Complement activation assists in the clearance of pathogens from an organism. As it is undesirable that a subject's body recognize a nanoparticle composition as a foreign invader, low complement system activation upon administration of such a composition is preferred. The complex sC5b-9 is a marker for the activation of the complement system. Thus, human cells were contacted in vitro with nanoparticle compositions according to Table 1A and were evaluated for sC5b-9 levels.

The nature of data set [1]: Particle size and polydispersity index of nanoparticle compositions (Zetasizer Nano ZS). The class given is physicochemical. The following applies: for PDI / Size (nm): Table 1A; for Size (nm): lipid:DSPC:cholesterol:PEG-DMG 50:10:38.5:1.5 mol %; for PDI (Polydispersity index) / Size: lipid nanoparticle, ±SD within one assay run (Table 37). A digest of the protocol:
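Particle size and PDI were measured on a Zetasizer Nano ZS with the nanoparticle compositions dispersed in 1×PBS.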

Data set [2] concerns luciferase (Luc) mRNA. Kind of data set: Luc expression in liver, lung, spleen and femur 6 hours after intravenous administration. The class given is in vivo. The following applies: mice, intravenous, 0.5 mpk. A digest of the protocol:
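LNP-formulated mRNA given IV to mice (n=3) at 0.5 mpk; at 6 h, bioluminescence imaged ex vivo 15 min after IP D-luciferin (15 mg/mL, 200 μL), organs imaged within 25 min. Values are total flux by region of interest.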

Data set [3] in a line: Encapsulation efficiency of RNA (QUANT-IT RIBOGREEN RNA assay). Format: physicochemical. The conditions noted are these: for EE (%): Table 1A; for % Encapsulation: lipid nanoparticle, ±SD within one assay run (Table 37). A digest of the protocol:
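RiboGreen fluorescence (ex ~480, em ~520 nm) compared between intact samples and Triton X-100-lysed samples after 15 min at 37 °C in TE buffer, pH 7.5. Percent free RNA is the blank-corrected intact/disrupted ratio.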

For data set [4], the system named is luciferase (Luc) mRNA. The data set can be described thus: Luc expression, whole body bioluminescence after intravenous administration to mice. The following applies: for Total Flux 3 hours / Total Flux 6 hours / Total Flux 24 hours / luciferase activity relative to MC3 LNP control: mice; for Total Flux 3 hours / Total Flux 6 hours / Total Flux 24 hours: i.v., 0.5 mg/kg, Luc mRNA; for luciferase activity relative to MC3 LNP control: intravenous, 0.5 mg/kg (mRNA dose). Format: in vivo. An outline of the steps: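 Luc mRNA nanoparticle formulations given intravenously to mice (n=6) at 0.5 mg/kg; whole-body bioluminescence imaged at 3, 6 and 24 h. CD-1 mice received IP D-luciferin (200 μL of 15 mg/mL) 15 min before imaging; total flux quantified by region of interest.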

Data set [5] is described as follows: Apparent (surface) pKa of the LNP formulation (TNS assay). The class given is physicochemical. A digest of the protocol: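 LNP (0.04 mg/mL mRNA) mixed with TNS reagent in 21 buffers spanning about pH 3-12, in triplicate; fluorescence plotted against pH as sigmoidal curve. Apparent pKa taken as […] curve inflection point; validated in 1× PBS and 20 mM Tris w/8% sucrose.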

Data set [6] can be described thus: Chemical stability of lipids in ethanol (lipid purity). Format: physicochemical. The method, then:
Ester linkages were previously reported to trigger metabolism by esterases in vivo. (See Fukami, T. et al. Drug Metab. Pharmacokinet. 2012, 27, 466-477, the content of which is incorporated by reference herein in its entirety). […] (See Maier M. A., Mol. Ther. 2013, 21, 1570-1578, the content of which is incorporated herein in its entirety) First, the chemical stability of the lipids was evaluated by measuring ethanol stability at room temperature and 37° C. (Table 39). […] LNPs formed with compound 138 were larger, with a surface pKa>7. […] Removal of one ester function (compound 136) afforded LNPs with improved physiochemical characteristics and lower LNP surface pKa.

Data set [7] in a line: Lipid clearance: lipid level in mouse liver tissue (LC-MS/MS). The class given is in vivo.
Description: Quantification of Lipid by LC-MS/MS: Liver samples were homogenized following addition of 19 eq. (w/v) of water (DF=20). Protein was precipitated and analyzed against calibration standards prepared in matching blank. Chromatographic separation and quantification was accomplished with a LC-MS/MS System. Samples were injected and separated via HPLC A triple-quadrupole MS/MS system operated in positive ion mode was used for signal detection.
Setting [8] is: lipid nanoparticle, ±SD within one assay run (Table 37).

Regarding `CCCCCCCCCCCCCCCCCCN(CCO)CCCCCCCC(=O)OC(CCCCCCCC)CCCCCCCC` [Compound 1, Heptadecan-9-yl 8-((2-hydroxyethyl)(octadecyl)amino)octanoate], the IL-6 induction result in the data set with IL-6, IP-10 (i.v., in words) is on record as “highest”. For the same compound, in the data set with IL-6, IP-10, the “Cytokine induction IL-6” value came to 267.24 and the “Cytokine induction IP-10” value turned out to be 687.14. Also, in the data set on sC5b-9, the “Fold increase in sC5b-9 levels versus saline” value was 0.82. In the data set on sC5b-9 (in words), the “sC5b-9 levels relative to saline” value is “slightly decrease”. Also, in [1], the PDI turned out to be 0.091 and the “Size (nm)” value is 72.7 nm. Besides, in the data set with luciferase (Luc) mRNA [2], the “Total Flux Femur” value worked out at 7.52E+05, the “Total Flux Liver” value is 4.02E+08, the “Total Flux Lung” value was 1.72E+06 and the “Total Flux Spleen” value came to 4.27E+06. Besides, the “EE (%)” value in [3] was determined as 97.04%. Also, in the data set with luciferase (Luc) mRNA [4] (Table 3A, i.v. administration), the “Fold increase in total body Luc Flux relative to MC3 at 6 h” value was 0.40. Also, in the data set with luciferase (Luc) mRNA [4], the “Total Flux 3 hours” value stood at 3.48E+09, the “Total Flux 6 hours” value was found to be 3.40E+09 and the “Total Flux 24 hours” value is recorded as 4.10E+08. In addition, the pKa in data set [5] (Table 1A) is reported as 6.50.
Regarding `CCCCCCCCCOC(=O)CCCCCCCN(CCCCCCCC(=O)OC(CCCCCCCC)CCCCCCCC)CCN(C)C` [Compound 14, Heptadecan-9-yl 8-((2-(dimethylamino)ethyl)(8-(nonyloxy)-8-oxooctyl)amino)octanoate], in the data set on IL-6, IP-10, the “Cytokine induction IL-6” value is reported as 75.29 and the “Cytokine induction IP-10” value is 621.49. Further, in [1], the PDI is given as 0.15, the “Size (nm)” value was 130.1 nm, the “PDI (Polydispersity index)” value was 0.15 ± 0.07 and the Size is reported as 130.1 ± 3.5 nm. Besides, in the data set with luciferase (Luc) mRNA [2], the “Total Flux Femur” value came out at 4.91E+06, the “Total Flux Liver” value stood at 1.91E+08, the “Total Flux Lung” value was 4.74E+06 and the “Total Flux Spleen” value was 1.92E+08. In data set [3], the “EE (%)” value is reported as 95.24% and the “% Encapsulation” value is recorded as 95.2 ± 0.5%. The “Lipid Purity” value in data set [6] (t = 0) is 92.08%. For the same compound, the “Lipid Purity” value in data set [6] (t = 96 h, 25° C.) came to 92.07%. In addition, the “Lipid Purity” value in [6] (t = 96 h, 37° C.) was 91.90%. For the same compound, in the data set on luciferase (Luc) mRNA [4], the “Total Flux 3 hours” value was found to be 4.43E+08, the “Total Flux 6 hours” value is given as 2.29E+09, the “Total Flux 24 hours” value was found to be 1.39E+08 and the “luciferase activity relative to MC3 LNP control” value was “complete loss of delivery efficiency”. For the same compound, in data set [5] (Table 1A), the pKa came out at 6.58. The pKa in [5] (setting [8]) is 6.58 ± 0.11.
For the compound `CCCCCCCCCOC(=O)CCCCCCCN(CCCCCCCC(=O)OC(CCCCCCCC)CCCCCCCC)CCCNC(=O)C(C)(C)COC` [Compound 281, Heptadecan-9-yl 8-((3-(3-methoxy-2,2-dimethylpropanamido)propyl)(8-(nonyloxy)-8-oxooctyl)amino)octanoate], in data set [1], the “PDI (Polydispersity index)” value amounted to 0.14 ± 0.05. In data set [1], the Size is recorded as 93.8 ± 5.6 nm. For the same compound, in [3], the “% Encapsulation” value amounted to 96.9 ± 1.2%. In [7] (CD-1 mouse liver 24 h after 0.5 mg/kg bolus dose mRNA, n = 5 ± S.D.), the “% dose remaining Mouse liver tissue, 24 h” value amounted to 66 ± 22%. For the same compound, the “original dose remaining in liver tissue 24 hours post dose” value in data set [7] (mice, intravenous) was 66%. In addition, the “Lipid Purity” value in data set [6] (t = 0) turned out to be 95.17%; in [6] (t = 96 h, 25° C.), 95.15%; in data set [6] (t = 96 h, 37° C.), 96.47%. For the same compound, in the data set with luciferase (Luc) mRNA [4], the “luciferase activity relative to MC3 LNP control” value is on record as “two-fold lower”. Besides, in data set [5] (setting [8]), the pKa stood at 6.79 ± 0.37.
